# Columns and labels:
# [1] = system: OCI-Ly7; assay: Combination study, ATPLite 72 h, dose matrix (Synergy Score, CI50)
# [2] = system: SU-DHL-4-epst; assay: as above
# Method: (§1) Cells are thawed from a liquid nitrogen preserved state. Once cells have been expanded and divide at their expected doubling times, screening begins. Cells are seeded in growth media in either black 1536-well or 384-well tissue culture treated plates. Cells are then equilibrated in assay plates via centrifugation and placed in incubators attached to the Dosing Modules at 37° C. for 24 hours before treatment. […] These Tzero (To) plates are read using ultra-sensitive luminescence on Envision plate readers (Perkin Elmer). Treated assay plates are incubated with compound for 72 hours. After 72 hours, plates are developed for endpoint analysis using ATPLite. All data points are collected via automated processes, quality controlled and analyzed using Zalicus software.
# The measure of effect in the experiment can be the inhibition of cellular response relative to the untreated level (vehicle alone). […] The inhibition ranges from 0% at the untreated level to 100% when T=0. Inhibition levels are negative for agents that actually increase levels.
# (§2) Growth Inhibition (GI) is used as a measure of cell viability. […] A GI reading of 100% represents complete growth inhibition—T72 compound-treated and T0 vehicle signals are matched. […] A GI reading of 200% represents complete death of all cells in the culture well. Compounds reaching an activity plateau of GI 200% are considered cytotoxic. GI is calculated by applying the following test and equation:
# (§3) Combination analysis data were collected in a 6×6 dose matrix. Synergy is calculated by comparing a combination's response to those of its single compound, against the drug-with-itself dose-additive reference model. Deviations from dose additivity may be assessed visually on an isobologram or numerically with a Combination Index (CI). […] Additive effect is CI=1.0. […] Antagonistic effect is CI>1.0.
# (§4) To measure combination effects in excess of Loewe additivity, a scalar measure to characterize the strength of synergistic interaction termed the Synergy Score is devised. The Synergy Score is calculated as:
# The fractional inhibition for each component agent and combination point in the matrix is calculated relative to the median of all vehicle-treated control wells. The Synergy Score equation integrates the experimentally-observed activity volume at each point in the matrix in excess of a model surface numerically derived from the activity of the component agents using the Loewe model for additivity. Additional terms in the Synergy Score equation (above) are used to normalize for various dilution factors used for individual agents and to allow for comparison of synergy scores across an entire experiment. The inclusion of positive inhibition gating or an Idata multiplier removes noise near the zero effect level, and biases results for synergistic interactions at that occur at high activity levels.
# Loewe Volume (Loewe Vol) is used to assess the overall magnitude of the combination interaction in excess of the Loewe additivity model. Loewe Volume is particularly useful when distinguishing synergistic increases in a phenotypic activity (positive Loewe Volume) versus synergistic antagonisms (negative Loewe Volume). […] This model defines additivity as a non-synergistic combination interaction where the combination dose matrix surface should be indistinguishable from either drug crossed with itself. The calculation for Loewe additivity is:
# [3] = system: WSU-NHL; assay: as above
# [4] = system: SU-DHL-6-epst; assay: Combination study of Compound 1 or CAL-101 and a second therapeutic agent (Synergy Score, CI50); type: cell-based
# [5] = system: KARPAS-422; assay: Combination study, ATPLite 72 h, dose matrix (Synergy Score, CI50)
# [6] = system: Farage; assay: as above; settings: Farage
# Method: as §1
# where T is treated cell count and V is untreated (vehicle) cell count (at 72 hours). I ranges from 0% (when T=V) to 100% (when T=0). […] The measure of effect in the experiment can be the inhibition of cellular response relative to the untreated level (vehicle alone). […] The inhibition ranges from 0% at the untreated level to 100% when T=0. Inhibition levels are negative for agents that actually increase levels. Other effect measures, such as an activity ratio r=T/V may be more appropriate for some assays. When activity ratios (e.g, fold increase over stimulated control) are being used, the effect can be measured using an induction 1=ln(T/V). With this definition, all effect expressions are the same as for inhibition.
# as §2, §3
# The isobologram was drawn by identifying the locus of concentrations that correspond to crossing the indicated inhibition level. This is done by finding the crossing point for each single agent concentration in a dose matrix across the concentrations of the other single agent. Practically, each vertical concentration CY is held fixed while a bisection algorithm is used to identify the horizontal concentration CX in combination with that vertical dose that gives the chosen effect level in the response surface Z(CX,CY). These concentrations are then connected by linear interpolation to generate the isobologram display. For synergistic interactions, the isobologram contour fall below the additivity threshold and approaches the origin, and an antagonistic interaction would lie above the additivity threshold. The error bars represent the uncertainty arising from the individual data points used to generate the isobologram. The uncertainty for each crossing point is estimated from the response errors using bisection to find the concentrations where Z−αZ(CX,CY) and Z+σZ(CX,CY) cross Icut, where αZ is the standard deviation of the residual error on the effect scale.
# as §4
# The fractional inhibition for each component agent and combination point in the matrix is calculated relative to the median of all vehicle-treated control wells.
# [7] = system: SU-DHL-10-epst; assay: as above
# [8] = system: DOHH-2; assay: as above
# [9] = system: RL; assay: as above
compound,measurement,setting,value
CC[C@H](Nc1ncnc2[nH]cnc12)c1nc2cccc(F)c2c(=O)n1-c1ccccc1 [CAL-101],CI50 growth inhibition,[1]; combination with Dexamethasone,S (S=0.01 to <0.5)
same,CI50 inhibition,[1]; combination with Dexamethasone,T (T=0.5 to <0.7)
same,Synergy Score growth inhibition,[1]; combination with Dexamethasone,A3 (A3=>3)
same,Synergy Score inhibition,[1]; combination with Dexamethasone,A2 (A2=1 to <3)
same,CI50 growth inhibition,[1]; combination with LEE011,W (W=≥1)
same,Synergy Score growth inhibition,[1]; combination with LEE011,A1 (A1=0.0001 to <1)
same,Synergy Score inhibition,[1]; combination with LEE011,A1 (A1=0.0001 to <1)
same,CI50 growth inhibition,[1]; combination with PCI-32765,W (W=≥1)
same,Synergy Score growth inhibition,[1]; combination with PCI-32765,A1 (A1=0.0001 to <1)
same,Synergy Score inhibition,[1]; combination with PCI-32765,A1 (A1=0.0001 to <1)
same,CI50 growth inhibition,[1]; combination with PD-0332991,S (S=0.01 to <0.5)
same,CI50 inhibition,[1]; combination with PD-0332991,T (T=0.5 to <0.7)
same,Synergy Score growth inhibition,[1]; combination with PD-0332991,A2 (A2=1 to <3)
same,Synergy Score inhibition,[1]; combination with PD-0332991,A2 (A2=1 to <3)
same,CI50 growth inhibition,[2]; combination with Dexamethasone,S (S=0.01 to <0.5)
same,CI50 inhibition,[2]; combination with Dexamethasone,S (S=0.01 to <0.5)
same,Synergy Score growth inhibition,[2]; combination with Dexamethasone,A3 (A3=>3)
same,Synergy Score inhibition,[2]; combination with Dexamethasone,A3 (A3=>3)
same,CI50 growth inhibition,[2]; combination with LEE011,S (S=0.01 to <0.5)
same,CI50 inhibition,[2]; combination with LEE011,T (T=0.5 to <0.7)
same,Synergy Score growth inhibition,[2]; combination with LEE011,A2 (A2=1 to <3)
same,Synergy Score inhibition,[2]; combination with LEE011,A2 (A2=1 to <3)
same,CI50 growth inhibition,[2]; combination with PCI-32765,S (S=0.01 to <0.5)
same,CI50 inhibition,[2]; combination with PCI-32765,S (S=0.01 to <0.5)
same,Synergy Score growth inhibition,[2]; combination with PCI-32765,A3 (A3=>3)
same,Synergy Score inhibition,[2]; combination with PCI-32765,A2 (A2=1 to <3)
same,CI50 growth inhibition,[2]; combination with PD-0332991,S (S=0.01 to <0.5)
same,CI50 inhibition,[2]; combination with PD-0332991,S (S=0.01 to <0.5)
same,Synergy Score growth inhibition,[2]; combination with PD-0332991,A3 (A3=>3)
same,Synergy Score inhibition,[2]; combination with PD-0332991,A2 (A2=1 to <3)
same,CI50 growth inhibition,[3]; combination with Dexamethasone,T (T=0.5 to <0.7)
same,CI50 inhibition,[3]; combination with Dexamethasone,T (T=0.5 to <0.7)
same,Synergy Score growth inhibition,[3]; combination with Dexamethasone,A3 (A3=>3)
same,Synergy Score inhibition,[3]; combination with Dexamethasone,A3 (A3=>3)
same,CI50 growth inhibition,[3]; combination with LEE011,T (T=0.5 to <0.7)
same,CI50 inhibition,[3]; combination with LEE011,S (S=0.01 to <0.5)
same,Synergy Score growth inhibition,[3]; combination with LEE011,A2 (A2=1 to <3)
same,Synergy Score inhibition,[3]; combination with LEE011,A2 (A2=1 to <3)
same,CI50 growth inhibition,[3]; combination with PCI-32765,S (S=0.01 to <0.5)
same,CI50 inhibition,[3]; combination with PCI-32765,S (S=0.01 to <0.5)
same,Synergy Score growth inhibition,[3]; combination with PCI-32765,A3 (A3=>3)
same,Synergy Score inhibition,[3]; combination with PCI-32765,A3 (A3=>3)
same,CI50 growth inhibition,[3]; combination with PD-0332991,S (S=0.01 to <0.5)
same,CI50 inhibition,[3]; combination with PD-0332991,S (S=0.01 to <0.5)
same,Synergy Score growth inhibition,[3]; combination with PD-0332991,A2 (A2=1 to <3)
same,Synergy Score inhibition,[3]; combination with PD-0332991,A2 (A2=1 to <3)
same,CI50 growth inhibition,[4]; combination with Dexamethasone,T (T=0.5 to <0.7)
same,CI50 inhibition,[4]; combination with Dexamethasone,S (S=0.01 to <0.5)
same,Synergy Score growth inhibition,[4]; combination with Dexamethasone,A2 (A2=1 to <3)
same,Synergy Score inhibition,[4]; combination with Dexamethasone,A2 (A2=1 to <3)
same,CI50 growth inhibition,[4]; combination with LEE011,S (S=0.01 to <0.5)
same,CI50 inhibition,[4]; combination with LEE011,S (S=0.01 to <0.5)
same,Synergy Score growth inhibition,[4]; combination with LEE011,A2 (A2=1 to <3)
same,Synergy Score inhibition,[4]; combination with LEE011,A2 (A2=1 to <3)
same,CI50 growth inhibition,[4]; combination with PCI-32765,T (T=0.5 to <0.7)
same,CI50 inhibition,[4]; combination with PCI-32765,T (T=0.5 to <0.7)
same,Synergy Score growth inhibition,[4]; combination with PCI-32765,A2 (A2=1 to <3)
same,Synergy Score inhibition,[4]; combination with PCI-32765,A2 (A2=1 to <3)
same,CI50 growth inhibition,[4]; combination with PD-0332991,T (T=0.5 to <0.7)
same,CI50 inhibition,[4]; combination with PD-0332991,T (T=0.5 to <0.7)
same,Synergy Score growth inhibition,[4]; combination with PD-0332991,A2 (A2=1 to <3)
same,Synergy Score inhibition,[4]; combination with PD-0332991,A2 (A2=1 to <3)
same,CI50 growth inhibition,[5]; combination with Dexamethasone,U (U=0.7 to <1)
same,CI50 inhibition,[5]; combination with Dexamethasone,T (T=0.5 to <0.7)
same,Synergy Score growth inhibition,[5]; combination with Dexamethasone,A3 (A3=>3)
same,Synergy Score inhibition,[5]; combination with Dexamethasone,A2 (A2=1 to <3)
same,CI50 growth inhibition,[5]; combination with LEE011,T (T=0.5 to <0.7)
same,CI50 inhibition,[5]; combination with LEE011,T (T=0.5 to <0.7)
same,Synergy Score growth inhibition,[5]; combination with LEE011,A2 (A2=1 to <3)
same,Synergy Score inhibition,[5]; combination with LEE011,A2 (A2=1 to <3)
same,CI50 growth inhibition,[5]; combination with PCI-32765,S (S=0.01 to <0.5)
same,CI50 inhibition,[5]; combination with PCI-32765,S (S=0.01 to <0.5)
same,Synergy Score growth inhibition,[5]; combination with PCI-32765,A3 (A3=>3)
same,Synergy Score inhibition,[5]; combination with PCI-32765,A2 (A2=1 to <3)
same,CI50 growth inhibition,[5]; combination with PD-0332991,S (S=0.01 to <0.5)
same,CI50 inhibition,[5]; combination with PD-0332991,S (S=0.01 to <0.5)
same,Synergy Score growth inhibition,[5]; combination with PD-0332991,A3 (A3=>3)
same,Synergy Score inhibition,[5]; combination with PD-0332991,A2 (A2=1 to <3)
same,CI50 growth inhibition,[6]; combination with Dexamethasone,U (U=0.7 to <1)
same,CI50 inhibition,[6]; combination with Dexamethasone,S (S=0.01 to <0.5)
same,Synergy Score growth inhibition,[6]; combination with Dexamethasone,A3 (A3=>3)
same,Synergy Score inhibition,[6]; combination with Dexamethasone,A3 (A3=>3)
same,CI50 growth inhibition,[6]; combination with LEE011,W (W=≥1)
same,CI50 inhibition,[6]; combination with LEE011,W (W=≥1)
same,Synergy Score growth inhibition,[6]; combination with LEE011,A1 (A1=0.0001 to <1)
same,Synergy Score inhibition,[6]; combination with LEE011,A1 (A1=0.0001 to <1)
same,CI50 growth inhibition,[6]; combination with PCI-32765,S (S=0.01 to <0.5)
same,CI50 inhibition,[6]; combination with PCI-32765,S (S=0.01 to <0.5)
same,Synergy Score growth inhibition,[6]; combination with PCI-32765,A3 (A3=>3)
same,Synergy Score inhibition,[6]; combination with PCI-32765,A3 (A3=>3)
same,CI50 growth inhibition,[6]; combination with PD-0332991,T (T=0.5 to <0.7)
same,CI50 inhibition,[6]; combination with PD-0332991,T (T=0.5 to <0.7)
same,Synergy Score growth inhibition,[6]; combination with PD-0332991,A2 (A2=1 to <3)
same,Synergy Score inhibition,[6]; combination with PD-0332991,A1 (A1=0.0001 to <1)
same,CI50 growth inhibition,[7]; combination with Dexamethasone,S (S=0.01 to <0.5)
same,CI50 inhibition,[7]; combination with Dexamethasone,S (S=0.01 to <0.5)
same,Synergy Score growth inhibition,[7]; combination with Dexamethasone,A3 (A3=>3)
same,Synergy Score inhibition,[7]; combination with Dexamethasone,A2 (A2=1 to <3)
same,CI50 growth inhibition,[7]; combination with LEE011,T (T=0.5 to <0.7)
same,CI50 inhibition,[7]; combination with LEE011,T (T=0.5 to <0.7)
same,Synergy Score growth inhibition,[7]; combination with LEE011,A3 (A3=>3)
same,Synergy Score inhibition,[7]; combination with LEE011,A2 (A2=1 to <3)
same,CI50 growth inhibition,[7]; combination with PCI-32765,U (U=0.7 to <1)
same,CI50 inhibition,[7]; combination with PCI-32765,U (U=0.7 to <1)
same,Synergy Score growth inhibition,[7]; combination with PCI-32765,A2 (A2=1 to <3)
same,Synergy Score inhibition,[7]; combination with PCI-32765,A2 (A2=1 to <3)
same,CI50 growth inhibition,[7]; combination with PD-0332991,S (S=0.01 to <0.5)
same,CI50 inhibition,[7]; combination with PD-0332991,S (S=0.01 to <0.5)
same,Synergy Score growth inhibition,[7]; combination with PD-0332991,A3 (A3=>3)
same,Synergy Score inhibition,[7]; combination with PD-0332991,A3 (A3=>3)
same,CI50 growth inhibition,[8]; combination with Dexamethasone,T (T=0.5 to <0.7)
same,CI50 inhibition,[8]; combination with Dexamethasone,U (U=0.7 to <1)
same,Synergy Score growth inhibition,[8]; combination with Dexamethasone,A3 (A3=>3)
same,Synergy Score inhibition,[8]; combination with Dexamethasone,A2 (A2=1 to <3)
same,CI50 growth inhibition,[8]; combination with LEE011,T (T=0.5 to <0.7)
same,CI50 inhibition,[8]; combination with LEE011,T (T=0.5 to <0.7)
same,Synergy Score growth inhibition,[8]; combination with LEE011,A3 (A3=>3)
same,Synergy Score inhibition,[8]; combination with LEE011,A2 (A2=1 to <3)
same,CI50 growth inhibition,[8]; combination with PCI-32765,S (S=0.01 to <0.5)
same,CI50 inhibition,[8]; combination with PCI-32765,S (S=0.01 to <0.5)
same,Synergy Score growth inhibition,[8]; combination with PCI-32765,A3 (A3=>3)
same,Synergy Score inhibition,[8]; combination with PCI-32765,A3 (A3=>3)
same,CI50 growth inhibition,[8]; combination with PD-0332991,T (T=0.5 to <0.7)
same,CI50 inhibition,[8]; combination with PD-0332991,T (T=0.5 to <0.7)
same,Synergy Score growth inhibition,[8]; combination with PD-0332991,A3 (A3=>3)
same,Synergy Score inhibition,[8]; combination with PD-0332991,A2 (A2=1 to <3)
same,CI50 growth inhibition,[9]; combination with Dexamethasone,T (T=0.5 to <0.7)
same,CI50 inhibition,[9]; combination with Dexamethasone,T (T=0.5 to <0.7)
same,Synergy Score growth inhibition,[9]; combination with Dexamethasone,A3 (A3=>3)
same,Synergy Score inhibition,[9]; combination with Dexamethasone,A2 (A2=1 to <3)
same,CI50 growth inhibition,[9]; combination with LEE011,T (T=0.5 to <0.7)
same,CI50 inhibition,[9]; combination with LEE011,U (U=0.7 to <1)
same,Synergy Score growth inhibition,[9]; combination with LEE011,A2 (A2=1 to <3)
same,Synergy Score inhibition,[9]; combination with LEE011,A1 (A1=0.0001 to <1)
same,CI50 growth inhibition,[9]; combination with PCI-32765,T (T=0.5 to <0.7)
same,CI50 inhibition,[9]; combination with PCI-32765,S (S=0.01 to <0.5)
same,Synergy Score growth inhibition,[9]; combination with PCI-32765,A2 (A2=1 to <3)
same,Synergy Score inhibition,[9]; combination with PCI-32765,A2 (A2=1 to <3)
same,CI50 growth inhibition,[9]; combination with PD-0332991,S (S=0.01 to <0.5)
same,CI50 inhibition,[9]; combination with PD-0332991,S (S=0.01 to <0.5)
same,Synergy Score growth inhibition,[9]; combination with PD-0332991,A2 (A2=1 to <3)
same,Synergy Score inhibition,[9]; combination with PD-0332991,A2 (A2=1 to <3)

# From patent US20240325398A1, “COMBINATION THERAPIES” (Infinity Pharmaceuticals, Inc., priority 2014, published 2024)
